The source made the active and inactive calls. No cut-off for these calls is given here.
Experiments:
Staphylococcus aureus [1] = test: Bactericidal activity against Staphylococcus aureus ATCC 25923 assessed as inhibition of bacterial growth at 2 times MIC measured at 60 mins by time-kill assay; type: functional, organism-based
Escherichia coli [2] = test: Bactericidal activity against Escherichia coli ATCC 25922 assessed as inhibition of bacterial growth at 0.5 to 2 times MIC measured at 90 mins by time-kill assay; type: functional, organism-based
Escherichia coli [3] = test: Bactericidal activity against Escherichia coli ATCC 25922 assessed as inhibition of bacterial growth at 1 times MIC measured at 120 mins by time-kill assay; type: functional, organism-based
Escherichia coli [4] = test: Antimicrobial activity against Escherichia coli ATCC 25922 assessed as reduction in microbial growth measured for 18 hrs in presence of 64 microg/ml LPS; type: functional, organism-based
Staphylococcus aureus [5] = test: Bactericidal activity against Staphylococcus aureus ATCC 25923 assessed as inhibition of bacterial growth at 2 times MIC measured at 120 mins by time-kill assay; type: functional, organism-based
Escherichia coli [6] = test: Synergistic antibacterial activity against Escherichia coli ATCC 25922 assessed as fractional inhibitory concentration index incubated for 18 hrs in presence of PMB by checkerboard assay; type: functional
Escherichia coli [7] = test: Additive antibacterial activity against rifampicin-resistant Escherichia coli ATCC 25922 incubated for 18 hrs by checkerboard assay; type: functional, organism-based
[8] = Hemolytic activity in mouse red blood cells assessed as hemolysis at 256 microg/ml incubated for 1 hr relative to control; type: toxicity, cell-based, Erythrocyte; conditions: red blood cells (erythrocytes), at 256 µg/mL, read-out: Activity
Staphylococcus aureus [9] = test: Bactericidal activity against Staphylococcus aureus ATCC 25923 assessed as inhibition of bacterial growth at 0.5 to 2 times MIC measured at 180 mins by time-kill assay; type: functional, organism-based
Escherichia coli [10] = test: Synergistic antibacterial activity against Escherichia coli ATCC 25922 assessed as fractional inhibitory concentration index incubated for 18 hrs in presence of rifampicin by checkerboard assay; type: functional
[11] = Acute toxicity in Kunming mouse assessed as survival rate at 20 to 60 mg/kg, ip measured after 4 hrs; type: organism-based; conditions: in vivo, dose 20-60 mg/kg
Escherichia coli [12] = test: Synergistic antibacterial activity against Escherichia coli ATCC 25922 assessed as fractional inhibitory concentration index incubated for 18 hrs in presence of gentamycin by checkerboard assay; type: functional
Staphylococcus aureus [13] = test: Antimicrobial activity against methicillin-resistant Staphylococcus aureus 48 assessed as inhibition of microbial growth incubated for 18 hrs by broth microdilution analysis; type: functional, organism-based; conditions: Staphylococcus aureus, 48, 18 h
Staphylococcus aureus [14] = test: Antimicrobial activity against methicillin-resistant Staphylococcus aureus 74 assessed as inhibition of microbial growth incubated for 18 hrs by broth microdilution analysis; type: functional, organism-based; conditions: Staphylococcus aureus, 74, 18 h
Staphylococcus aureus [15] = test: Antimicrobial activity against methicillin-resistant Staphylococcus aureus 936 assessed as inhibition of microbial growth incubated for 18 hrs by broth microdilution analysis; type: functional, organism-based; conditions: Staphylococcus aureus, 936, 18 h
[16] = Hemolytic activity in mouse red blood cells assessed as hemolysis at 128 microg/ml incubated for 1 hr relative to control; type: toxicity, cell-based, Erythrocyte; conditions: red blood cells (erythrocytes), read-out: Activity
Escherichia coli [17] = test: Antimicrobial activity against Escherichia coli ATCC 25922 assessed as reduction in microbial growth measured for 18 hrs in presence of […] microg/ml LPS; type: functional, organism-based
Staphylococcus aureus [18] = test: Antimicrobial activity against methicillin-resistant Staphylococcus aureus 52 assessed as inhibition of microbial growth incubated for 18 hrs by broth microdilution analysis; type: functional, organism-based; conditions: Staphylococcus aureus, 52, 18 h
Staphylococcus aureus [19] = test: Bactericidal activity against Staphylococcus aureus ATCC 25923 assessed as inhibition of bacterial growth at 2 times MIC measured upto 360 mins by time-kill assay; type: functional, organism-based
Escherichia coli [20] = test: Antimicrobial activity against Escherichia coli 850 assessed as inhibition of microbial growth incubated for 18 hrs by broth microdilution analysis; type: functional, organism-based; conditions: Escherichia coli, 850, 18 h
Escherichia coli [21] = test: Antimicrobial activity against Escherichia coli 804 assessed as inhibition of microbial growth incubated for 18 hrs by broth microdilution analysis; type: functional, organism-based; conditions: Escherichia coli, 804, 18 h
Staphylococcus aureus [22] = test: Antimicrobial activity against methicillin-resistant Staphylococcus aureus 54 assessed as inhibition of microbial growth incubated for 18 hrs by broth microdilution analysis; type: functional, organism-based; conditions: Staphylococcus aureus, 54, 18 h
Pseudomonas aeruginosa [23] = test: Antimicrobial activity against Pseudomonas aeruginosa 86 assessed as inhibition of microbial growth incubated for 18 hrs by broth microdilution analysis; type: functional, organism-based; conditions: Pseudomonas aeruginosa, 86, 18 h
Pseudomonas aeruginosa [24] = test: Antimicrobial activity against Pseudomonas aeruginosa 124 assessed as inhibition of microbial growth incubated for 18 hrs by broth microdilution analysis; type: functional, organism-based; conditions: Pseudomonas aeruginosa, 124, 18 h
[25] = Acute toxicity in Kunming mouse assessed as survival rate at 20 to 80 mg/kg, ip measured after 4 hrs; type: organism-based; conditions: in vivo, dose 20-80 mg/kg
Escherichia coli [26] = test: Antimicrobial activity against Escherichia coli 780 assessed as inhibition of microbial growth incubated for 18 hrs by broth microdilution analysis; type: functional, organism-based; conditions: Escherichia coli, 780, 18 h
Klebsiella pneumoniae [27] = test: Antibacterial activity against Klebsiella pneumoniae ATCC 700603 infected in BALB/c mouse pneumonia model assessed as alveolar expansion at 10 mg/kg, ip measured at 4 to 12 hrs by hematoxylin and eosin staining based analysis; type: functional, organism-based; conditions: time 4-12 hrs
Staphylococcus aureus [28] = test: Bactericidal activity against Staphylococcus aureus ATCC 25923 assessed as inhibition of bacterial growth at 2 times MIC measured at 30 mins by time-kill assay; type: functional, organism-based
Pseudomonas aeruginosa [29] = test: Antimicrobial activity against Pseudomonas aeruginosa 119 assessed as inhibition of microbial growth incubated for 18 hrs by broth microdilution analysis; type: functional, organism-based; conditions: Pseudomonas aeruginosa, 119, 18 h
Klebsiella pneumoniae [30] = test: Antibacterial activity against Klebsiella pneumoniae ATCC 700603 infected in BALB/c mouse pneumonia model assessed as reduction in infiltration of inflammatory cells at 10 mg/kg, ip measured at 4 to 12 hrs by hematoxylin and eosin staining based analysis; type: functional, organism-based; conditions: time 4-12 hrs

**Q.** With CC[C@H](C)[C@@H]1NC(=O)[C@H](CCN)NC(=O)C[C@@H](C(C)C)OC(=O)[C@H]([C@@H](C)O)NC(=O)[C@H](CC(C)C)NC(=O)[C@@H](C(C)C)NC(=O)[C@H](CCN)NC(=O)[C@H](CC(C)C)NC(=O)[C@@H](Cc2ccccc2)NC(=O)[C@H](CCN)NC1=O as the compound, how does the Activity (Staphylococcus aureus [1]) read?
**A.** Active

**Q.** What about the Activity (Escherichia coli [2]) of the same compound?
**A.** Active

**Q.** And the Activity (Escherichia coli [3])?
**A.** Active

**Q.** What about the Activity (Escherichia coli [4]) of the same compound?
**A.** Active

**Q.** For CCCCCCC(=O)N[C@@H](CCN)C(=O)N[C@H](C(=O)N[C@@H](CCN)C(=O)N[C@H](Cc1ccccc1)C(=O)N[C@@H](CC(C)C)C(=O)N[C@@H](CCN)C(=O)N[C@@H](C(=O)N[C@@H](CC(C)C)C(=O)N[C@@H](Cc1ccc(O)cc1)C(N)=O)C(C)C)[C@@H](C)CC, which Activity (Staphylococcus aureus [5]) is on record?
**A.** Active

**Q.** What about the “fractional inhibitory concentration index (FICI)” value (Escherichia coli [6]) of the same compound?
**A.** 0.312

**Q.** What about the Activity (Escherichia coli [7]) of the same compound?
**A.** Active

**Q.** And the hemolysis at 1 h, 256 µg/mL [8]?
**A.** < 10%

**Q.** And the Activity (Staphylococcus aureus [9])?
**A.** Active

**Q.** What about the “fractional inhibitory concentration index (FICI)” value (Escherichia coli [10]) of the same compound?
**A.** 0.312

**Q.** And the Activity [11]?
**A.** Toxic

**Q.** What about the “fractional inhibitory concentration index (FICI)” value (Escherichia coli [12]) of the same compound?
**A.** 0.5

**Q.** What about the Activity (Escherichia coli [4]) of the same compound?
**A.** Active

**Q.** For CCCCCCCC(=O)N[C@@H](CCN)C(=O)N[C@H](C(=O)N[C@@H](CCN)C(=O)N[C@H](Cc1ccccc1)C(=O)N[C@@H](CC(C)C)C(=O)N[C@@H](CCN)C(=O)N[C@@H](C(=O)N[C@@H](CC(C)C)C(=O)N[C@@H](Cc1ccc(O)cc1)C(N)=O)C(C)C)[C@@H](C)CC, which EC50 (Staphylococcus aureus [13]) is on record?
**A.** 5.48 µg/mL

**Q.** And the EC50 (Staphylococcus aureus [14])?
**A.** 5.1 µg/mL

**Q.** And the EC50 (Staphylococcus aureus [15])?
**A.** 6.12 µg/mL

**Q.** And the hemolysis at 1 h, 128 µg/mL [16]?
**A.** 10%

**Q.** And the Activity (Escherichia coli [17])?
**A.** Active

**Q.** And the Activity (Escherichia coli [7])?
**A.** Active

**Q.** And the EC50 (Staphylococcus aureus [18])?
**A.** 4.46 µg/mL

**Q.** And the Activity (Staphylococcus aureus [19])?
**A.** Active

**Q.** What about the EC50 (Escherichia coli [20]) of the same compound?
**A.** 2.42 µg/mL

**Q.** What about the EC50 (Escherichia coli [21]) of the same compound?
**A.** 2.36 µg/mL

**Q.** What about the EC50 (Staphylococcus aureus [22]) of the same compound?
**A.** 4.33 µg/mL

**Q.** What about the EC50 (Pseudomonas aeruginosa [23]) of the same compound?
**A.** 2.08 µg/mL

**Q.** And the EC50 (Pseudomonas aeruginosa [24])?
**A.** 2.76 µg/mL

**Q.** What about the Activity [25] of the same compound?
**A.** Toxic

**Q.** What about the EC50 (Escherichia coli [26]) of the same compound?
**A.** 2.55 µg/mL

**Q.** And the Activity (Klebsiella pneumoniae [27])?
**A.** Active

**Q.** And the Activity (Staphylococcus aureus [28])?
**A.** Active

**Q.** What about the EC50 (Pseudomonas aeruginosa [29]) of the same compound?
**A.** 2.31 µg/mL

**Q.** What about the Activity (Klebsiella pneumoniae [30]) of the same compound?
**A.** Active

— ChEMBL document CHEMBL5331122, “Structure-Activity Relationship Study of Antimicrobial Peptide PE2 Delivered Novel Linear Derivatives with Potential of Eradicating Biofilms and Low Incidence of Drug Resistance” (J Med Chem, 2023)
